Data on one compound can be found in US12303497B2, “Anti-androgens for the treatment of metastatic castration-sensitive prostate cancer” (priority 2019, dated 2025).

Series [1] addresses CYP2D6 (Homo sapiens, UniProt P10635). Nature of the series: In vitro effect on CYP. Particulars: therapeutically relevant concentrations.
Series [2] has as its system patients with metastatic castration-sensitive prostate cancer (mCSPC). Nature of the series: Phase 3 study (TITAN) of apalutamide plus ADT versus placebo plus ADT: efficacy. It counts as in vivo, human. On the procedure:
The data presented herein as associated with this study reflects the state of this study at the time of this filing. The study was conducted at 260 sites in 23 countries. Review boards at all participating institutions approved the study, which was conducted in accordance with current International Conference on Harmonization guidelines for Good Clinical Practice and according to Declaration of Helsinki principles. All patients provided written informed consent. An independent data-monitoring committee was commissioned by the sponsor to monitor safety and efficacy before unblinding and make study conduct recommendations. Data were transcribed by personnel at each site from source documents into sponsor-prepared electronic case report forms. Blinding of investigators, patients, study site personnel, and sponsor study team to randomization codes was maintained until study completion, independent data-monitoring committee recommendation, or individual patient medical need.
Patients were stratified by Gleason score at diagnosis (≤7 vs. >7), region (North America and European Union vs. all other countries), and prior treatment with docetaxel (yes vs. no). A Screening Phase of up to 28 days before randomization established study eligibility. Subjects will receive/received treatment in 28-day cycles during the Treatment Phase until disease progression or the occurrence of unacceptable treatment-related toxicity or the sponsor terminates the study. […] During the Follow-up Phase, data collection (every 4 months) will include survival, additional data on secondary endpoints, date and type of disease progression (radiographic, PSA, clinical or a combination) on the first subsequent therapy for prostate cancer, and subsequent therapy for prostate cancer. Data collection in follow-up will continue until the subject dies, withdraws consent, is lost to follow-up or the study is terminated by the sponsor. The Brief Pain Inventory Short Form (BPI SF), Brief Fatigue Inventory (BFI), and EQ-5D-5L patient-report outcome (PRO) measures will also continue in the Follow-up Phase up to 12 months after treatment discontinuation.
Eligible patients were required to have documented adenocarcinoma of the prostate and distant metastatic disease documented by ≥1 lesion on bone scan, with or without visceral or lymph node involvement. […] Patients were castration sensitive (i.e., patients who are not receiving ADT at the time of progression). Previous treatment for prostate cancer was limited to prior docetaxel (maximum six cycles, no evidence of progression during treatment or before randomization), ADT for ≤6 months for metastatic castration-sensitive prostate cancer or ≤3 years total duration for localized prostate cancer, one course of radiation or surgical therapy for symptoms associated with metastatic disease, and other localized treatments (e.g., radiation therapy, prostatectomy) completed ≥1 year before randomization. Patients who had received a gonadotropin-releasing hormone agonist ≤28 days before randomization were required to take a first-generation antiandrogen (i.e., biclutamide, flutamide, or nilutamide) for ≥14 days before randomization. Antiandrogen must have been discontinued before randomization. Patients with severe angina, myocardial infarction, congestive heart failure, arterial/venous thromboembolic events, history of or predisposition for seizure, or recent ventricular arrhythmias were excluded.

A short description of series [3]: Clinical pharmacokinetics of apalutamide and N-desmethyl apalutamide.

Sequence of CYP2D6 (P10635 whole entry): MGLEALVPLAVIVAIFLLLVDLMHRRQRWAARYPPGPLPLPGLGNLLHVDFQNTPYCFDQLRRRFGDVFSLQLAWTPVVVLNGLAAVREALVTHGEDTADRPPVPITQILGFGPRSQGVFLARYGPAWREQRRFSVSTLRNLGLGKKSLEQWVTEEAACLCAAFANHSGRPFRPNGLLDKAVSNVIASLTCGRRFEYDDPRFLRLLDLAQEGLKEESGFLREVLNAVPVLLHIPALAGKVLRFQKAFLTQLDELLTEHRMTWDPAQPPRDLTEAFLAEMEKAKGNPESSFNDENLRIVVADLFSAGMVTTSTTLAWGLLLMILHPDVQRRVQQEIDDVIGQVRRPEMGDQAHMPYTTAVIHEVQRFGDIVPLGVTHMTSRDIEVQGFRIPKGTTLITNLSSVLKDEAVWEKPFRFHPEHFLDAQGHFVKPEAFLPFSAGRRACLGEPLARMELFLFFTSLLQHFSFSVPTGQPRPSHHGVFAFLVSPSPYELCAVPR

Turning to `CNC(=O)c1ccc(N2C(=S)N(c3cnc(C#N)c(C(F)(F)F)c3)C(=O)C23CCC3)cc1F` [Apalutamide, 4-[7-(6-cyano-5-trifluoromethylpyridin-3-yl)-8-oxo-6-thioxo-5,7-diazaspiro[3.4]oct-5-yl]-2-fluoro-N-methylbenzamide], the “Effect on CYP2D6” value in series [1] was “do not affect”. Besides, the “Treatment discontinuations as the result of progressive disease” value in series [2] (99 patients) was determined as 19%. Besides, in series [2] (525 patients randomized), the “Deaths at cutoff for the first interim analysis” value amounted to 83 and the Radiographic progression events is on record as 134. Also, the “Median radiographic progression-free survival” value in series [2] (final analysis for rPFS) is on record as “not reached”. For the same compound, in series [2] (in vivo), the “Overall survival, 24-month event-free rate” value is reported as 82%; the “Patients in whom PSA reached undetectable levels (PSA<0.2 ng per ml)” value was determined as 68%; the “Radiographic progression-free survival, 24-month event-free rate” value came out at 68%. Moreover, the “Change in FACT-P from baseline (health-related quality of life)” value in series [2] (mixed-effect repeated measures model) is “maintained health-related quality of life and no between-group difference”. Besides, the “Patients who discontinued because of disease progression” value in series [2] (n = 525) is given as 99 (18.9) no. (%). Moreover, in series [2] (vs placebo + ADT), the “Reduction in risk of death” value stood at 33% and the “Reduction in risk of radiographic progression or death” value was 52%. The CL/F – broadly, clearance divided by bioavailability, as obtained after extravascular dosing – in series [3] (after single dosing) is on record as 1.3 L/h. The “Pharmacokinetics in specific populations” value in series [3] (age 18-94 years, race, mild to moderate renal impairment, mild to moderate hepatic impairment) is “No clinically significant differences”. The CL/F in series [3] (at steady-state after once-daily dosing) was determined as 2.0 L/h. The “Mean apparent volume of distribution at steady-state” value in series [3] (human, in vivo) was “approximately 276 L”. The “Median time to achieve peak plasma concentration (tmax)” value in series [3] (range: 1 to 5 hours) came out at 2 h. For the same compound, the Time to steady-state in series [3] (recommended dosage (240 mg once daily)) is given as 4 weeks. For the same compound, in series [3] (recommended dosage, SD 32 (apalutamide), 23 (N-desmethyl apalutamide)), the AUC (commonly the area under the concentration-time curve, a measure of exposure) at steady-state, mean was found to be 100000 ng·h/mL. In addition, the “Dose dependence of Cmax and AUC” value in series [3] (repeated once-daily dosing of 30 to 480 mg) is “increased proportionally”.
